# Data as given in patent publication US6747032B2, “Pyrimidin-4-one compounds” (Les Laboratoires Servier, priority 2001, dated 2004).
# What was measured:
# [1] = tested on: male mice of the NMRI strain; experiment: Marble-burying test in the mouse; type: in vivo; conditions: s.c., 30 minutes' exploration, 24 marbles
# Excerpt: This test allows evaluation of the capacity of pharmacological agents to inhibit spontaneous marble-burying behaviour in the mouse, the inhibition being predictive of antidepressant and/or anti-impulsive action.
# Male mice of the NMRI strain weighing from 20 to 25 g on the day of the experiment are placed individually in Macrolon boxes containing 5 cm of sawdust and covered with a perforated plexiglass plate. Twenty-four “tiger's eye” glass marbles are evenly distributed on the sawdust at the periphery of the box. At the end of 30 minutes' free exploration, the animals are removed from the box and the number of buried marbles is counted.
# male CD-1 mice = experiment: Test for aggressiveness caused by isolation, in the mouse; type: in vivo; conditions: isolated male CD-1 mice, i.p., 30 min before test, measured over three minutes
# Procedure: The animals used are male CD-1 mice. From the time of their arrival, the mice are isolated in individual cages, with free access to food and drink. After a period of one month of isolation, pairs of mice that are stable in terms of aggressiveness are selected by observing the latency period and the number and the duration of attacks when the mice are placed in the presence of one another.
# The test is conducted once per week. On the day of the test, each mouse of the pair (resident and intruder) is given an intraperitoneal injection of the vehicle (control animals) or of the compound under test (treated animals) in a volume of 10 ml/kg. After 30 minutes, the intruder mouse is introduced into the cage of the resident mouse. The latency period until the first attack and the number and the duration of attacks are then measured over a period of three minutes.
# A compound is considered to be specifically anti-aggressive when it reduces the number and the duration of attacks at non-sedative doses.
# 5-HT2c receptors = target: T1, 5-HT2c receptors (Rattus norvegicus, UniProt P08909); experiment: Penile erection test in the rat (erections caused by RO 60-0175); type: in vivo; conditions: sc, male Wistar rats, s.c., compound 30 min before RO 60-0175 (1.25 mg/kg s.c.), erections counted over 30 min, read-out: inhibitory dose 50 (ID50), inhibition of penile erections caused by RO 60-0175
# T1 construct: from tissue; host or cells: whole animal (male Wistar rat, in vivo)
# T1 sequence (P08909 33-460): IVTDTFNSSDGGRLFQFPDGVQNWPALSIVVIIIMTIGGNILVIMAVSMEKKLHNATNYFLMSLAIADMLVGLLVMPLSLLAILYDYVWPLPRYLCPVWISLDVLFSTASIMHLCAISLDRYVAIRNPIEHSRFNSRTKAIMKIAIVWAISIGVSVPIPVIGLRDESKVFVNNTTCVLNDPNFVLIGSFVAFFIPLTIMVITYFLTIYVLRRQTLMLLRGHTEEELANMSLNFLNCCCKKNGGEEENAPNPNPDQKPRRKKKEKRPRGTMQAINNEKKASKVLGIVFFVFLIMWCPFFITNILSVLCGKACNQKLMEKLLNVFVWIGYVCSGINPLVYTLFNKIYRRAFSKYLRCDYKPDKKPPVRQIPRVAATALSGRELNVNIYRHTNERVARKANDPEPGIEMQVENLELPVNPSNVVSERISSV
# Procedure: This test allows evaluation of the capacity of pharmacological agents to inhibit penile erections caused by administration of a selective 5-HT2c agonist, RO 60-0175.
# Male rats of the Wistar strain weighing 120-140 g on the day of the experiment are placed separately in plexiglass observation boxes immediately after the compound under test or the vehicle has been administered. Thirty minutes later, RO 60-0175 (1.25 mg/kg, subcutaneous) is administered to the animals and the number of erections occurring during the next 30 minutes is counted.
# α2-adrenergic receptors = experiment: Affinity for α2-adrenergic receptors, competition with [3H]-RX 821,002; type: binding; conditions: rat cerebral cortex membranes, 0.4 nM [3H]-RX 821,002, 60 minutes at 22° C.
# Procedure: The affinity was determined by competition experiments with [^3H]-RX 821,002. The membranes are prepared from the cerebral cortex of the rat and are incubated in triplicate with 0.4 nM [^3H]-RX 821,002 and the compound being tested in a final volume of 1.0 ml, for 60 minutes at 22° C. The incubation buffer contains […] TRIS-HCl (pH 7.5), 1 mM EDTA and 100 μM GppNHp. The non-specific binding is determined using 10 μM phentolamine.
# Data Analysis: At the end of the incubation, the incubation medium is filtered through WHATMAN GF/B filters impregnated with 0.1% of polyethylenimine and washed three times with 5 ml of cooled buffer. The radioactivity retained on the filters is determined by liquid scintillation counting. The binding isotherms are analysed by non-linear regression.
smiles,measurement,setting,value
"Cc1nc2ccccn2c(=O)c1CCN1CC2COc3ccc4ccccc4c3C2C1.O=C(O)/C=C/C(=O)O (stereo not shown) [Example 3, 3-[2-(1,3a,4,11c-Tetrahydrobenzo[5,6]chromeno[3,4-c]pyrrol-2(3H)-yl)-ethyl]-2-methyl-4H-pyrido[1,2-a]pyrimidin-4-one Fumarate]","inhibitory dose 50 (ID50), spontaneous marble-burying behaviour",[1],4.1 mg/kg
same,"inhibitory dose 50 (ID50), number and duration of attacks",male CD-1 mice,7 mg/kg
same,ED50,5-HT2c receptors,2.6 mg/kg
same,pKi,α2-adrenergic receptors,7.5
